Measured values taken from patent US8507499B2, “Substituted indole/indazole-pyrimidinyl compounds” (Confluence Life Sciences, Inc., priority 2010, dated 2013).
Values joined by “and” are separate entries in the source; they are usually repeats but may differ in a detail not shown here. Identical values can stand only once.

Molecular target: p38/MK2 (Homo sapiens, UniProt Q16539)
Assay: p38α/MK2 cascade assay (phosphorylation of Hsp27 peptide, Caliper LabChip 3000)
Format: biochemical
Details: Hsp27 peptide 1 μM, MgATP 10 μM, two values printed in one cell
Description: The novel, MK2 substrate-selective inhibitory mechanism of compounds is evaluated in enzyme assays comparing inhibitor potency in blocking p38/MK2 versus p38/PRAK induced phosphorylation of an HSP-27 derived peptide substrate. The ability of compounds to inhibit activated phospho-p38α is evaluated using a p38α/MK2 and a p38α/PRAK cascade assay format. The kinase activity of p38α is determined by its ability to phosphorylate GST-MK2 or GST-PRAK. Activation of MK2 or PRAK by p38α is quantitated by measuring the phosphorylation of a fluorescently-labeled, MK2 specific peptide substrate, Hsp27 peptide (FITC-KKKALSRQLSVAA). The phosphorylation of the Hsp27 peptide is quantified using the Caliper LabChip 3000. Kinase reactions are carried out in a 384-well plate (Matrical, MP101-1-PP) in 20 mM HEPES pH 7.5, 10 mM MgCl2, 0.0005% Tween-20, 0.01% BSA, 1 mM DTT, and 2% DMSO. […] The p38α compound inhibitory potency is quantitated from dose-response IC50 values or Ki values from p38α/MK2 cascade assays while the substrate selectivity is calculated as a ratio of p38α/PRAK:p38α/MK2 IC50 values. Species compounds of Formula I, described hereinabove, evaluated in this assay, are expected to provide a therapeutic benefit in the treatment of p38 kinase mediated diseases, such as autoimmune diseases and lymphoma.

p38/MK2, sequence (Q16539 whole entry): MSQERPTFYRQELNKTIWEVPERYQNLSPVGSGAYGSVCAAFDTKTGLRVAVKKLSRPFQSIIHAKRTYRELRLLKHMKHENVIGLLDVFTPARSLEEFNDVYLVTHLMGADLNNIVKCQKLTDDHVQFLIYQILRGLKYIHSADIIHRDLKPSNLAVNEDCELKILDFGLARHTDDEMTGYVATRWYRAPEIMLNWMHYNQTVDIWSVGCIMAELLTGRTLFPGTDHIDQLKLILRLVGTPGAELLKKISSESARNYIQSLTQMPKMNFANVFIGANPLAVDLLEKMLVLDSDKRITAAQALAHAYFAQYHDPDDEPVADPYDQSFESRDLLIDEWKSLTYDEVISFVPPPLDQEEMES

IC50: 2.89 µM and 3.86 µM
Structure (SMILES): CC(C)(C)c1nccc(-c2c[nH]c3cc(Cl)c(C(=O)N4CCC(Cc5ccc(F)cc5)CC4)cc23)n1 [Example 57, (3-(2-tert-Butyl-pyrimidin-4-yl)-6-chloro-1H-indol-5-yl)-(4-(4-fluorobenzyl)-piperidin-1-yl)-methanone]
